{
  "source": "patent US8846330B2",
  "about": "“Methods and kits for the diagnosis of RyR1-related diseases” (The Henry M. Jackson Foundation for the Advancement of …, priority 2008, dated 2014)",
  "key": {"lymphocyte cells [1]": {"tested_on": "lymphocyte cells", "assay": "4CmC-induced adenosine plus inosine in cultured swine lymphocytes (Example 2)", "type": "cell-based", "conditions": "for adenosine plus inosine level upon stimulation with 4CmC, mean±SEM: 5 mM 4CmC", "method": "Lymphocyte cells were isolated from whole arterial blood sample (40 ml) obtained from homozygous recessive MHS (n=5) and normal (n=3) swine by the Ficoll-Hypaque centrifugation technique. Lymphocyte cells were then cultured in RPMI-1640 media supplemented with 10% fetal bovine serum plus 100 units/liter penicillin at 37° C. under 5% CO2 for 2 to 3 weeks. After cell culture period, cell's (5−15×10^4 cells) were suspended in Hanks' balanced salt solution (HBSS)+1% bovine serum albumin and treated with specific RyR1 agonist 4-chloro-m-cresol (4CmC, 5 mM) at 37° C. in the presence and absence of inhibitor of adenosine deaminase erythro-9-(2-hydroxy-3-nonyl) adenine (EHNA, 0.1 mM) for 30 minutes. After purification using 12% HClO4 followed by centrifugation (10 minutes, 4000 RPM), aliquot of sample (50 μl) was assayed for adenosine and inosine content using high performance liquid chromatography (HPLC). Data are normalized to per 1 million cells, compared using one way ANOVA, and presented as mean±SEM. P<0.05 considered significant."}, "lymphocyte cells [2]": {"tested_on": "lymphocyte cells", "assay": "4CmC-induced adenosine in swine lymphocyte cells, nucleosides assay (Example 4)", "type": "cell-based", "conditions": "for EC50: Sus scrofa, Lymphocyte; for peak ADO level upon 4CmC stimulation, mean±SEM: near 1 mM 4CmC", "method": "Isolation of lymphocytes from whole blood: Lymphocyte cells were isolated from whole blood by Ficoll-Hypaque density gradient centrifugation technique (see Boyum A., Scand. J. Clip. Lab. 97:77-89 (1968)). Isolated lymphocyte cells were dispensed into 3-volume normal Hanks' balanced salt solution (HBSS) and centrifuged (10 minutes at 1000 RPM). The pellet was re-suspended in HBSS to lyse contaminating erythrocytes and spun. The later step was repeated one more time. To maintain simplicity of the protocol for possible MH diagnostic purposes no further purification was attempted. Lymphocyte cells were then cultured in RPMI-1640 media supplemented with 10% fetal bovine serum, […] penicillin and 2 mM glutamine. Cell cultures were incubated at 37° C. in a humidified chamber with 5% CO2. All experiments were completed within 4 days after isolation of lymphocyte cells from whole blood samples.\nNucleosides Assay Protocol: Briefly, lymphocyte cells (1−2×10^6 cells/test) were suspended in HBSS with or without Ca^2+/Mg^2+ (as indicated for each experiment) plus 0.1% bovine serum albumin (BSA). Experiments were carried out in the presence of the adenosine deaminase inhibitor erythro-9-(2-hydroxy-3-nonyl) adenine-HCl ([…]) to prevent deamination of adenosine to inosine (Lorbar et al., J Mol Cell Cardiol 31: 401-12 (1999)) and incubated at 37° C. for 10 minutes followed by treatment with different 4CmC concentrations (0.05-10 mM). Further incubation at 37° C. for an additional 45 minutes was also carried out. Final volumes of the test tubes were adjusted to 0.2 ml using HBSS buffer. Termination of the cell activity and purification of samples was accomplished by addition of 0.1 ml 12% perchloric acid followed by centrifugation at 5000 RPM for 10 minutes. Aliquots of the supernatant (50 μl) were assayed for adenosine and inosine content using HPLC.\nHPLC Conditions: The HPLC system consisted of a Waters Symmetry C18 column (4.6×250 mm) and mobile phase of 94% KH2PO4 (50 mM, pH 4.6) containing 1-heptanesulfonic acid (0.5 mM) and 6% acetonitrile. Under these conditions, retention times for inosine and adenosine were 4 and 7.3 min, respectively. Peak width of inosine and adenosine were 18 and 36 seconds, respectively. Eluting compounds were detected by their absorbance at 254 nm using a Waters photodiode array detector (model 996). Sample adenosine and inosine concentrations were obtained using a calibrated standard curve of concentrations vs. peak area.\nStatistics: Sample nucleosides concentrations were normalized to represent per 1 million cells and presented as means±SEM. The t-test was applied to test for differences between agonist-induced nucleosides in lymphocyte cells from MHS and normal swine. A P<0.05 considered to indicate statistical significance."}},
  "note": "“Also recorded” adds a separate entry of the source. Like-named read-outs stand apart in the source and are kept apart here.",
  "data": [
    {"smiles": "Cc1cc(O)ccc1Cl", "note": "[4CmC, 4-chloro-m-cresol]", "values": [
      {"measurement": "adenosine plus inosine level upon stimulation with 4CmC, mean±SEM", "setting": "lymphocyte cells [1]; MHS swine (n=5)", "result": "8.06 ± 0.9", "unit": "µM"},
      {"measurement": "adenosine plus inosine level upon stimulation with 4CmC, mean±SEM", "setting": "lymphocyte cells [1]; normal swine (n=3)", "result": "1.16 ± 0.3", "unit": "µM"},
      {"measurement": "increase of nucleoside production on 4CmC stimulation", "setting": "lymphocyte cells [1]; lymphocytes from MHS swine", "result": "nine-fold increase"},
      {"measurement": "effect of 4CmC stimulation on nucleoside (adenosine plus inosine) production", "setting": "lymphocyte cells [1]; lymphocytes from normal swine", "result": "minimal, if any, effect"},
      {"measurement": "4CmC-induced ADO in lymphocyte cells from MHS swine versus normal swine", "setting": "lymphocyte cells [2]", "result": "significantly greater; also recorded: significantly higher"},
      {"measurement": "4CmC-induced ADO, mean±SEM", "setting": "lymphocyte cells [2]; 1 mM 4CmC, Ca2+/Mg2+-free HBSS, normal swine (n=6)", "result": "0.244 ± 0.026", "unit": "µM"},
      {"measurement": "basal plus 4CmC-induced ADO range", "setting": "lymphocyte cells [2]; 1 mM 4CmC, MHS swine cells", "result": "0.250 to 0.537", "unit": "µM"},
      {"measurement": "4CmC-induced ADO, mean±SEM", "setting": "lymphocyte cells [2]; 1 mM 4CmC, normal HBSS, normal swine (n=6)", "result": "0.326 ± 0.023", "unit": "µM"},
      {"measurement": "increase in ADO formation in the presence of extracellular Ca2+", "setting": "lymphocyte cells [2]; 1 mM 4CmC, normal swine", "result": "25.2±5.1", "unit": "%"},
      {"measurement": "basal plus 4CmC-induced ADO range", "setting": "lymphocyte cells [2]; 1 mM 4CmC, normal swine cells", "result": "0.145 to 0.209", "unit": "µM"},
      {"measurement": "4CmC-induced ADO, mean±SEM", "setting": "lymphocyte cells [2]; 2 mM 4CmC, absence of extracellular Ca2+, normal swine", "result": "0.167 ± 0.018", "unit": "µM"},
      {"measurement": "4CmC-induced adenosine relative to basal adenosine level", "setting": "lymphocyte cells [2]; 2 mM 4CmC, no FCCP, Ca2+/Mg2+ free HBSS, normal swine (n=5)", "result": 5.8, "unit": "fold"},
      {"measurement": "increase in 4CmC-induced ADO formation in the presence of extracellular Ca2+", "setting": "lymphocyte cells [2]; 2 mM 4CmC, normal swine", "result": "41±3.3", "unit": "%"},
      {"measurement": "4CmC-induced ADO, mean±SEM", "setting": "lymphocyte cells [2]; 2 mM 4CmC, presence of extracellular Ca2+, normal swine", "result": "0.284 ± 0.023", "unit": "µM"},
      {"measurement": "increase in sensitivity to 4CmC in the MHS cell population", "setting": "lymphocyte cells [2]; MHS vs normal swine cells", "result": "~60", "unit": "%"},
      {"measurement": "EC50", "setting": "lymphocyte cells [2]; read-out: estimated EC50 of 4CmC for ADO formation, MHS swine cells", "result": "550 ± 60", "unit": "µM"},
      {"measurement": "EC50", "setting": "lymphocyte cells [2]; read-out: estimated EC50 of 4CmC for ADO formation, normal swine cells", "result": "340 ± 40", "unit": "µM"},
      {"measurement": "peak ADO level upon 4CmC stimulation, mean±SEM", "setting": "lymphocyte cells [2]; normal HBSS, MHS swine cells (n=7)", "result": "0.389 ± 0.033", "unit": "µM"},
      {"measurement": "peak ADO level upon 4CmC stimulation, mean±SEM", "setting": "lymphocyte cells [2]; normal HBSS, normal swine cells (n=7)", "result": "0.199 ± 0.005", "unit": "µM"},
      {"measurement": "4CmC concentration at which ADO levels peaked", "setting": "lymphocyte cells [2]; swine lymphocytes, normal HBSS", "result": "~1", "unit": "mM"}
    ]}
  ]
}
